Experimental data: the supplement of paper PMC10307832

Experiments:
Assay in all cases: relative viability (nuclei count vs DMSO), 5 days (fraction); higher = more cells survive
[1] = test system: NCI-H2126
Summary of the method: (§1)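 Relative viability was taken as the ratio of nuclei in treated wells to nuclei in vehicle wells. Lung cancer cell lines in 1536-well plates received compounds by pin tool one day after seeding, either one drug alone or a fixed anchor-drug dose plus five library-drug doses (not always all listed) in √10 steps. Nuclei were counted on 4× images after 5 days of treatment, and values are medians of duplicate plates.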

[2] = test system: NCI-H1666
Summary of the method: as §1

[3] = test system: NCI-H322M
Summary of the method: as §1

[4] = test system: NCI-H2085
Summary of the method: as §1

[5] = test system: UMC-11
Summary of the method: as §1

[6] = test system: EMC-BAC-2
Summary of the method: as §1

[7] = test system: HCC-78
Summary of the method: as §1

[8] = test system: NCI-H1755
Summary of the method: as §1

[9] = test system: NCI-H2023
Summary of the method: as §1

[10] = test system: NCI-H1975
Summary of the method: as §1

[11] = test system: EPLC-272H
Summary of the method: as §1

[12] = test system: LXF-289
Summary of the method: as §1

[13] = test system: NCI-H3122
Summary of the method: as §1

[14] = test system: ChaGo-K-1
Summary of the method: as §1

[15] = test system: NCI-H358
Summary of the method: as §1

[16] = test system: NCI-H1993
Summary of the method: as §1

[17] = test system: CAL-12T
Summary of the method: as §1

[18] = test system: ABC-1
Summary of the method: as §1

[19] = test system: NCI-H1915
Summary of the method: as §1

[20] = test system: HOP-62
Summary of the method: as §1

[21] = test system: COR-L 105
Summary of the method: as §1

[22] = test system: NCI-H441
Summary of the method: as §1

[23] = test system: HCC-15
Summary of the method: as §1

In the case of `Clc1ccc(Nc2nnc(Cc3ccncc3)c3ccccc23)cc1` [Vatalanib] + CS(=O)(=O)N1CCN(Cc2cc3nc(-c4cccc5[nH]ncc45)nc(N4CCOCC4)c3s2)CC1 [Pictilisib] (partner 1 µM), the relative viability ([1]; first compound 0.04 µM) is reported as 0.488, the relative viability ([1]; first compound 0.1265 µM) is reported as 0.512 and the relative viability ([1]; first compound 0.4 µM) is reported as 0.524. The relative viability ([1]; first compound 1.265 µM) was 0.47, the relative viability ([1]; first compound 4 µM) was 0.494 and the relative viability ([2]; first compound 0.04 µM) was 0.538. The relative viability ([2]; first compound 0.1265 µM) was 0.334, the relative viability ([2]; first compound 0.4 µM) was 0.33 and the relative viability ([2]; first compound 1.265 µM) was 0.512. The relative viability ([2]; first compound 4 µM) was 0.499, the relative viability ([3]; first compound 0.04 µM) was 0.513 and the relative viability ([3]; first compound 0.1265 µM) was 0.489. It also gave a relative viability ([3]; first compound 0.4 µM) of 0.555, a relative viability ([3]; first compound 1.265 µM) of 0.534 and a relative viability ([3]; first compound 4 µM) of 0.553. It also gave a relative viability ([4]; first compound 0.04 µM) of 0.424, a relative viability ([4]; first compound 0.1265 µM) of 0.524 and a relative viability ([4]; first compound 0.4 µM) of 0.44. The relative viability ([4]; first compound 1.265 µM) was 0.469, the relative viability ([4]; first compound 4 µM) was 0.438 and the relative viability ([5]; first compound 0.04 µM) was 0.814. It also gave a relative viability ([5]; first compound 0.1265 µM) of 0.746, a relative viability ([5]; first compound 0.4 µM) of 0.875 and a relative viability ([5]; first compound 1.265 µM) of 0.79. For the same compound, the relative viability ([5]; first compound 4 µM) was 0.794, the relative viability ([6]; first compound 0.04 µM) was 0.559 and the relative viability ([6]; first compound 0.1265 µM) was 0.556. It also gave a relative viability ([6]; first compound 0.4 µM) of 0.572, a relative viability ([6]; first compound 1.265 µM) of 0.533 and a relative viability ([6]; first compound 4 µM) of 0.525. The relative viability ([7]; first compound 0.04 µM) was 0.199, the relative viability ([7]; first compound 0.1265 µM) was 0.172 and the relative viability ([7]; first compound 0.4 µM) was 0.183. The relative viability ([7]; first compound 4 µM) was 0.196, the relative viability ([8]; first compound 0.04 µM) was 0.405 and the relative viability ([8]; first compound 0.1265 µM) was 0.395. For the same compound, the relative viability ([8]; first compound 0.4 µM) was 0.453, the relative viability ([8]; first compound 1.265 µM) was 0.387 and the relative viability ([8]; first compound 4 µM) was 0.383. The relative viability ([9]; first compound 0.04 µM) was 0.252, the relative viability ([9]; first compound 0.1265 µM) was 0.255 and the relative viability ([9]; first compound 0.4 µM) was 0.318. The relative viability ([9]; first compound 1.265 µM) was 0.218, the relative viability ([9]; first compound 4 µM) was 0.226 and the relative viability ([10]; first compound 0.04 µM) was 0.277. It also gave a relative viability ([10]; first compound 0.1265 µM) of 0.322, a relative viability ([10]; first compound 0.4 µM) of 0.32 and a relative viability ([10]; first compound 1.265 µM) of 0.258. The relative viability ([10]; first compound 4 µM) was 0.287, the relative viability ([11]; first compound 0.04 µM) was 0.35 and the relative viability ([11]; first compound 0.1265 µM) was 0.309. For the same compound, the relative viability ([11]; first compound 0.4 µM) was 0.151, the relative viability ([11]; first compound 1.265 µM) was 0.332 and the relative viability ([11]; first compound 4 µM) was 0.344. For the same compound, the relative viability ([12]; first compound 0.04 µM) was 0.894, the relative viability ([12]; first compound 0.1265 µM) was 0.737 and the relative viability ([12]; first compound 0.4 µM) was 0.748. It also gave a relative viability ([12]; first compound 1.265 µM) of 0.702, a relative viability ([12]; first compound 4 µM) of 0.747 and a relative viability ([13]; first compound 0.04 µM) of 0.66. For the same compound, the relative viability ([13]; first compound 0.1265 µM) was 0.534, the relative viability ([13]; first compound 0.4 µM) was 0.646 and the relative viability ([13]; first compound 1.265 µM) was 0.573. It also gave a relative viability ([13]; first compound 4 µM) of 0.593, a relative viability ([14]; first compound 0.04 µM) of 0.418 and a relative viability ([14]; first compound 0.1265 µM) of 0.719. The relative viability ([14]; first compound 1.265 µM) was 0.687, the relative viability ([14]; first compound 4 µM) was 0.787 and the relative viability ([15]; first compound 0.04 µM) was 0.378. The relative viability ([15]; first compound 0.1265 µM) was 0.361, the relative viability ([15]; first compound 0.4 µM) was 0.397 and the relative viability ([15]; first compound 1.265 µM) was 0.311. It also gave a relative viability ([15]; first compound 4 µM) of 0.353, a relative viability ([16]; first compound 0.04 µM) of 0.782 and a relative viability ([16]; first compound 0.1265 µM) of 0.898. It also gave a relative viability ([16]; first compound 0.4 µM) of 0.847, a relative viability ([16]; first compound 1.265 µM) of 0.816 and a relative viability ([16]; first compound 4 µM) of 0.887. For the same compound, the relative viability ([17]; first compound 0.04 µM) was 0.238, the relative viability ([17]; first compound 0.1265 µM) was 0.39 and the relative viability ([17]; first compound 1.265 µM) was 0.446. The relative viability ([17]; first compound 4 µM) was 0.463, the relative viability ([18]; first compound 0.04 µM) was 0.888 and the relative viability ([18]; first compound 0.1265 µM) was 0.78. The relative viability ([18]; first compound 0.4 µM) was 0.877, the relative viability ([18]; first compound 1.265 µM) was 0.71 and the relative viability ([18]; first compound 4 µM) was 0.784. The relative viability ([19]; first compound 0.04 µM) was 1.12, the relative viability ([19]; first compound 0.1265 µM) was 0.929 and the relative viability ([19]; first compound 0.4 µM) was 0.972. The relative viability ([19]; first compound 1.265 µM) was 0.863, the relative viability ([19]; first compound 4 µM) was 0.942 and the relative viability ([20]; first compound 0.04 µM) was 0.758. It also gave a relative viability ([20]; first compound 0.4 µM) of 0.632, a relative viability ([20]; first compound 1.265 µM) of 0.702 and a relative viability ([20]; first compound 4 µM) of 0.713. For the same compound, the relative viability ([21]; first compound 0.04 µM) was 0.361, the relative viability ([21]; first compound 0.1265 µM) was 0.4 and the relative viability ([21]; first compound 0.4 µM) was 0.276. The relative viability ([21]; first compound 1.265 µM) was 0.359, the relative viability ([21]; first compound 4 µM) was 0.377 and the relative viability ([22]; first compound 0.04 µM) was 0.561. For the same compound, the relative viability ([22]; first compound 0.1265 µM) was 0.4, the relative viability ([22]; first compound 0.4 µM) was 0.592 and the relative viability ([22]; first compound 1.265 µM) was 0.474. For the same compound, the relative viability ([22]; first compound 4 µM) was 0.501, the relative viability ([23]; first compound 0.04 µM) was 0.788 and the relative viability ([23]; first compound 0.1265 µM) was 0.741. For the same compound, the relative viability ([23]; first compound 0.4 µM) was 0.799, the relative viability ([23]; first compound 1.265 µM) was 0.716 and the relative viability ([23]; first compound 4 µM) was 0.786.
